≈ marks a conversion by molar mass, not a printed value.
What was measured:
Test in all cases: ≥ marks a high value that may be exact or a test limit, other limits are often not marked, values filed in µg/mL are converted to µM
[1] = system: Staphylococcus aureus ATCC 25923
[2] = system: Escherichia coli ATCC 25922
[3] = system: Pseudomonas aeruginosa CMCCB 10104
[4] = system: Candida albicans ATCC 2002
[5] = system: Bacillus subtilis ATCC 6633
[6] = system: Klebsiella pneumoniae ATCC 10031
[7] = system: Shigella dysenteriae ATCC 9752
[8] = system: Pseudomonas aeruginosa ATCC 27853
[9] = system: Staphylococcus aureus ATCC 6538P
[10] = system: Staphylococcus epidermidis ATCC 12228
[11] = system: Micrococcus luteus ATCC 10240
[12] = system: Salmonella enterica subsp. enterica serovar Typhimurium ATCC 14028
[13] = system: Pseudomonas aeruginosa PAO1
[14] = system: Staphylococcus aureus USA 300
Bacillus subtilis 168 = system: Bacillus subtilis 168
Escherichia coli K-12 = system: Escherichia coli K-12
[15] = system: Staphylococcus aureus ATCC 6538

Row | Compound | MIC [1] [µM] | MIC [2] [µM] | MIC [3] [µM] | MIC [4] [µM] | MIC [8] [µM] | MIC (Escherichia coli K-12) [µM] | also measured
1 | CC[C@H](C)[C@H](NC(=O)[C@H](Cc1ccccc1)NC(=O)[C@H](CCCCN)NC(=O)[C@H](CC(=O)O)NC(=O)[C@@H](NC(=O)[C@H](CC(C)C)NC(=O)[C@H](CC(=O)O)NC(=O)[C@H](CCC(=O)O)NC(=O)[C@H](C)NC(=O)[C@H](CC(=O)O)NC(=O)[C@H](CCC(=O)O)NC(=O)CNC(=O)[C@H](CC(N)=O)NC(=O)[C@H](CCC(=O)O)NC(=O)[C@@H](NC(=O)[C@H](CC(N)=O)NC(=O)[C@H](C)NC(=O)[C@@H](N)CC(=O)O)C(C)C)[C@@H](C)O)C(=O)NCC(=O)N[C@@H](CC(C)C)C(=O)N[C@@H](CCSC)C(=O)NCC(=O)O [DANVENGEDAEDLTDKFIGLMG] | > 85 | > 85 | ≥ 85 | ≥ 85 |  |  | 
2 | C[C@H](NC(=O)[C@H](Cc1c[nH]c2ccccc12)NC(=O)[C@H](CCCCN)NC(=O)[C@H](C)NC(=O)[C@@H](N)Cc1ccccc1)C(=O)N[C@@H](Cc1ccccc1)C(=O)N[C@@H](CCCCN)C(=O)N[C@@H](Cc1c[nH]c2ccccc12)C(=O)N[C@@H](C)C(=O)N[C@@H](CCCCN)C(=O)N[C@@H](CCCCN)C(N)=O [FAKWAFKWAKK] |  | 70.9 (≈ 99.9 µg/mL) |  |  | 142 (≈ 200 µg/mL) |  | MIC [5]: 17.7 µM (≈ 25 µg/mL); MIC [6]: ≥ 142 µM; MIC [7]: ≥ 35.4 µM; MIC [9]: ≥ 70.9 µM; MIC [10]: 70.9 µM (≈ 99.9 µg/mL); MIC [11]: 17.7 µM (≈ 25 µg/mL); MIC [12]: 142 µM (≈ 200 µg/mL)
3 | CC[C@H](C)[C@H](NC(=O)CN)C(=O)N[C@@H](Cc1ccccc1)C(=O)N[C@@H](CO)C(=O)N[C@@H](CCCCN)C(=O)N[C@H](C(=O)N[C@@H](CO)C(=O)NCC(=O)N[C@@H](CCCCN)C(=O)N[C@@H](C)C(=O)N[C@H](C(=O)N[C@@H](CCCCN)C(=O)N[C@@H](CC(N)=O)C(=O)N[C@@H](CC(C)C)C(=O)N[C@@H](Cc1ccccc1)C(=O)N[C@H](C(=O)N[C@@H](CCCCN)C(=O)NCC(=O)N[C@@H](C)C(=O)N[C@@H](CCCCN)C(=O)N[C@@H](CC(N)=O)C(=O)N[C@H](C(=O)NCC(=O)N[C@@H](CCCCN)C(=O)N[C@@H](CCCN=C(N)N)C(=O)N[C@H](C(=O)NCC(=O)N[C@@H](CCSC)C(=O)N[C@@H](CC(=O)O)C(=O)N[C@H](C(=O)N[C@H](C(=O)N[C@@H](CCCN=C(N)N)C(=O)N[C@H](C(=O)NCC(=O)N[C@@H](CCSC)C(=O)N[C@@H](CC(=O)O)C(=O)N[C@H](C(=O)N[C@H](C(=O)NCC(=O)N[C@H]1CSSC[C@@H](C(=O)O)NC(=O)[C@H](CCC(=O)O)NC(=O)CNC(=O)[C@H](CCCCN)NC(=O)[C@H]([C@@H](C)CC)NC(=O)[C@H](CCCCN)NC1=O)C(C)C)C(C)C)[C@@H](C)O)C(C)C)C(C)C)C(C)C)C(C)C)[C@@H](C)CC)[C@@H](C)CC)[C@@H](C)CC [GIFSKISGKAIKNLFIKGAKNVGKRVGMDVVRTGMDVVGCKIKGEC] | 2.27 (≈ 11 µg/mL) | 1.13 (≈ 5.5 µg/mL) | 2.27 (≈ 11 µg/mL) | 2.27 (≈ 11 µg/mL) |  |  | 
4 | CC[C@H](C)[C@H](NC(=O)CN)C(=O)N[C@@H](CC(C)C)C(=O)NCC(=O)N[C@@H](CC(N)=O)C(=O)N[C@H](C(=O)N[C@H](C(=O)NCC(=O)N[C@@H](CCSC)C(=O)NCC(=O)N[C@@H](CCCCN)C(=O)N[C@@H](CCCCN)C(=O)N[C@H](C(=O)N[C@H](C(=O)N[C@H]1CSSC[C@@H](C(=O)O)NC(=O)[C@H](CC(C)C)NC(=O)CNC(=O)[C@H](CO)NC(=O)[C@H](CC(C)C)NC(=O)CNC1=O)C(C)C)[C@@H](C)CC)C(C)C)[C@@H](C)CC [GILGNIVGMGKKIVCGLSGLC] | 3.05 (≈ 6.19 µg/mL) | 3.05 (≈ 6.19 µg/mL) | 6.1 (≈ 12.4 µg/mL) | 1.53 (≈ 3.1 µg/mL) |  |  | 
5 | CC[C@H](C)[C@H](NC(=O)CNC(=O)[C@H](CO)NC(=O)[C@H](CC(C)C)NC(=O)[C@@H](NC(=O)CN)[C@@H](C)CC)C(=O)N[C@@H](CC(C)C)C(=O)NCC(=O)N[C@H](C(=O)NCC(=O)N[C@@H](CCCCN)C(=O)N[C@@H](CCSC)C(=O)N[C@@H](CC(C)C)C(=O)N[C@H](C(=O)N[C@H]1CSSC[C@@H](C(=O)O)NC(=O)[C@H](CC(C)C)NC(=O)CNC(=O)[C@H](CO)NC(=O)[C@H](CC(C)C)NC(=O)CNC1=O)C(C)C)C(C)C [GILSGILGVGKMLVCGLSGLC] | 4.32 (≈ 8.59 µg/mL) | 4.32 (≈ 8.59 µg/mL) | 8.64 (≈ 17.2 µg/mL) | 4.32 (≈ 8.59 µg/mL) |  |  | 
6 | CC[C@H](C)[C@H](N)C(=O)N[C@@H](CCCCN)C(=O)N[C@@H](Cc1c[nH]c2ccccc12)C(=O)N[C@@H](CCCCN)C(=O)N[C@@H](CCCCN)C(=O)N[C@@H](CC(C)C)C(=O)N[C@@H](CC(C)C)C(=O)N[C@@H](CCCN=C(N)N)C(=O)N[C@@H](C)C(=O)N[C@@H](C)C(=O)N[C@@H](CCCCN)C(=O)N[C@@H](CCCN=C(N)N)C(=O)N[C@H](C(=O)N[C@@H](CC(C)C)C(N)=O)[C@@H](C)CC [IKWKKLLRAAKRIL] |  |  |  |  |  | 3.1 (≈ 5.38 µg/mL) | MIC [13]: 6.25 µM (≈ 10.9 µg/mL); MIC [14]: 6.2 µM (≈ 10.8 µg/mL); MIC (Bacillus subtilis 168): 12.5 µM (≈ 21.7 µg/mL)
7 | CC[C@H](C)[C@H](NC(=O)[C@H](CCSC)NC(=O)[C@H](CCCCN)NC(=O)[C@H](CCC(=O)O)NC(=O)[C@H](C)NC(=O)[C@H](CCCCN)NC(=O)[C@H](CCCCN)NC(=O)[C@H](Cc1ccccc1)NC(=O)[C@@H](NC(=O)[C@H](CCCCN)NC(=O)[C@H](Cc1c[nH]c2ccccc12)NC(=O)[C@@H](N)CCCCN)C(C)C)C(=O)N[C@@H](CCCN=C(N)N)C(=O)N[C@@H](CC(N)=O)C(=O)N[C@H](C(=O)N[C@@H](CCCN=C(N)N)C(=O)N[C@@H](CC(N)=O)C(=O)N[C@@H](CCCCN)C(=O)N[C@H](C(=O)N[C@H](C(=O)N[C@@H](CCCCN)C(N)=O)C(C)C)[C@@H](C)CC)[C@@H](C)CC [KWKVFKKAEKMIRNIRNKIVK] |  |  |  |  | > 6 | 3 (≈ 7.97 µg/mL) | MIC [15]: > 25 µM
8 | CC(C)C[C@H](NC(=O)[C@H](CCCCN)NC(=O)[C@H](CCCCN)NC(=O)[C@H](CC(C)C)NC(=O)[C@H](Cc1c[nH]c2ccccc12)NC(=O)[C@H](CCCCN)NC(=O)[C@H](CC(C)C)NC(=O)[C@@H](N)CC(C)C)C(N)=O [LLKWLKKL] |  | 96 (≈ 99.9 µg/mL) |  |  | 48 (≈ 50 µg/mL) |  | MIC [5]: ≥ 48 µM; MIC [6]: ≥ 192 µM; MIC [7]: ≥ 192 µM; MIC [9]: 24 µM (≈ 25 µg/mL); MIC [10]: 96 µM (≈ 99.9 µg/mL); MIC [11]: ≥ 96 µM; MIC [12]: > 192 µM
9 | CC[C@H](C)[C@H](NC(=O)[C@@H]1CCCN1C(=O)[C@H](Cc1cnc[nH]1)NC(=O)[C@H](CCCCN)NC(=O)[C@@H]1CCCN1C(=O)[C@@H](N)CCCNC(=N)N)C(=O)N[C@@H](CCCCN)C(=O)N[C@@H](Cc1cnc[nH]1)C(=O)N[C@@H](CCC(N)=O)C(=O)NCC(=O)N[C@@H](CC(C)C)C(=O)N1CCC[C@H]1C(=O)N[C@@H](CCC(N)=O)C(=O)N[C@@H](CCC(=O)O)C(=O)N[C@H](C(=O)N[C@@H](CC(C)C)C(=O)N[C@@H](CC(N)=O)C(=O)N[C@@H](CCC(=O)O)C(=O)N[C@@H](CC(N)=O)C(=O)N[C@@H](CC(C)C)C(=O)N[C@@H](CC(C)C)C(=O)N[C@@H](CCCNC(=N)N)C(=O)N[C@@H](Cc1ccccc1)C(=O)O)C(C)C [RPKHPIKHQGLPQEVLNENLLRF] |  |  |  |  |  | ≥ 100 | MIC [14]: ≥ 100 µM
10 | CC[C@H](C)[C@H](NC(=O)[C@H](CCCN=C(N)N)NC(=O)[C@H](CCC(N)=O)NC(=O)[C@@H](NC(=O)[C@@H](NC(=O)[C@H](CCCN=C(N)N)NC(=O)[C@@H](N)CCCN=C(N)N)[C@@H](C)CC)C(C)C)C(=O)N[C@@H](CCCN=C(N)N)C(=O)N[C@@H](CC(=O)O)C(=O)N[C@@H](Cc1ccccc1)C(=O)N[C@@H](CC(C)C)C(=O)N[C@@H](CCCN=C(N)N)C(N)=O [RRIVQRIRDFLR] |  |  |  |  |  | 30 (≈ 48.8 µg/mL) | 

Reference: DBAASP
